Molecules are shown by their SMILES.

This is an account of results in patent US20250313807A1, “SYSTEMS AND METHODS FOR CHARACTERIZATION OF POLYCYSTIC KIDNEY DISEASE” (University of Washington, priority 2022, published 2025).

The subject of series [1] is PKD organoids.
Procedure: The low height of the channels in the flow devices enabled continuous time lapse imaging of fluorescent molecules without high background fluorescence.
Organoid perfusion in microfluidic chip. Ibidi μ-Slide VI0.4 were coated with 3.0% Reduced Growth Factor Geltrex (Life Technologies) and left at 37° C. overnight to solidify. Kidney organoids (21-40 d) were picked from adhered culture plates, pipetted into the slide channels (2-3 per channel) with RB, and left for 24 hrs at 37° C. to attach. Organoids were distributed randomly within the channel. For the fluidic condition, 60 mL syringes filled with RB were attached to channels using clear tubing (Cole-Parmer, 0.02″ ID, 0.083″ OD). A clamp was used to close off the tubing, and the media in the syringe was changed to 25 mL RB+36.5 μM 2-NBD-Glucose fluorescent glucose (Abcam ab146200). […]
Image/video collection. […] Experiments in microfluidic devices were recorded for 6 hours. […] Cyst growth rate in microfluidic devices was therefore calculated on an individual basis, when each cyst reached its maximal volume, which varied for each sample from 1 hour to 5 hours after the start of the experiment. For longer-term experiments conducted in static 96-well cultures, organoids were imaged at regular intervals (typically 24 hours) and analyzed at the endpoint indicated in the figure graphs. […]
Series [2] concerns PKD cysts of Pkd1^RC/RC mice. The note with it: systemic perfusion with PBS+1 mM NBD-Glucose, kidney tissue sections.
Procedure: To determine whether PKD cysts absorbed glucose in vivo, a methodology was devised to inject mice with NBD glucose and immediately retrieve their kidneys (FIG. 6D).
For perfusion experiments, NBD Glucose was freshly dissolved in PBS to a concentration of 1 mM. Freshly sacrificed Pkd1^RC/RC mice (>8 months old) were incised through the chest and nicked at the vena cava with a 27-gauge needle. Keeping pressure on the vena cava, mice were perfused systemically through the heart with a syringe containing 10 mL of PBS, followed by a second syringe containing 5 mL of either PBS alone (control) or PBS+1 mM NBD-Glucose. Kidneys were harvested immediately and embedded fresh without fixation or sucrose equilibration in OCT. Cryostat-cut mouse kidney sections (20 μm) were mounted in OCT and imaged on a confocal microscope with 10× objective. […] Mice were maintained on a standard diet under standard pathogen-free housing conditions, with food and water freely available.
Another series concerns PKD organoid cysts. Nature of the series: cyst expansion in PKD organoids under static conditions (96-well plate). It is filed as cell-based, human.
In series [3] the test system is PKD organoids. Kind of series: live/dead staining (calcein AM/propidium iodide) of cystic organoids. It is filed as cell-based, human. The following applies: 24 and 48 hours of treatment.

Procedure for PKD organoid cysts: To test functionally whether cyst growth is linked to glucose transport in human organoids, cyst expansion was quantified in increasing concentrations of D-glucose under static conditions (96-well plate).
To test this hypothesis, the effects of pharmacological transport inhibitors on cysts were examined in static conditions.
Kidney organoid differentiation. […] 5,000-20,000 hPSCs per well were placed in each 24-well plate pre-coated with 300 μL of DMEM-F12 containing 0.2 mg/mL Matrigel and sandwiched the following day with 0.2 mg/mL Matrigel in mTeSR1 ([sequence] Technologies, Vancouver) to produce scattered, isolated spheroid colonies. 48 hrs after sandwiching, hPSC spheroids were treated with 12 μM CHIR99021 (Tocris Bioscience) for 36 h, then changed to RB (Advanced RPMI+1× Glutamax+1×B27 Supplement, all from Thermo Fisher Scientific) after 48 hours, and replaced with fresh RB every 3 days thereafter.
Image/video collection. Image collection was performed on a Nikon Ti Live-Cell Inverted Widefield microscope inside of an incubated live imaging chamber supplemented with 5% carbon dioxide. […] For longer-term experiments conducted in static 96-well cultures, organoids were imaged at regular intervals (typically 24 hours) and analyzed at the endpoint indicated in the figure graphs. Phase contrast and GFP (200 ms exposure) images were taken every 5 minutes for a maximum of 12 hours. […]

Consider `O=C[C@H](Nc1ccc([N+](=O)[O-])c2nonc12)[C@@H](O)[C@H](O)[C@H](O)CO` [NBD glucose, 2-(N-(7-Nitrobenz-2-oxa-1,3-diazol-4-yl)Amino)-2-Deoxyglucose], for which, in the series on PKD organoids [1] (organoid tubules), the “absorption into organoid proximal and distal tubules (immunofluorescence)” value was “absorbed into and accumulated inside organoid proximal and distal tubules”. Further, in the series with PKD organoids [1] (switched into media containing only unlabeled glucose, continuous flow), the “washout from loaded PKD organoids” value is “disappeared rapidly”. The “uptake by cyst-lining epithelia and surrounding interstitium” value in series [2] is recorded as “readily took up NBD glucose”.

On to `O=C(CCc1ccc(O)cc1)c1c(O)cc(O)cc1O` [Phloretin, phloretin], for which the “decrease of cyst size” value in the series on PKD organoid cysts (800 μM phloretin, 15 mM glucose) is listed as 77%. The “toxicity by live-dead staining” value with PKD organoids [3] was “no significant toxicity”.

For the compound `CCCN(CCC)S(=O)(=O)c1ccc(C(=O)O)cc1` [probenecid], the “effect on cyst growth” value with PKD organoid cysts (15 mM D-Glucose, non-toxic doses) was “no effect on cyst growth”.
